Tests used:
[1] = tested on: SNP cells; test: Analysis of apoptosis (Muse Annexin V and Dead Cell Assay kit); type: cell-based, canine; conditions: 8 μg/mL; 1, 5, or 15 J/cm^2; 4 h after PDT; p < 0.01
Procedure: (§1) SNP cells were seeded at a density of 5 × 10^4 cells/well in 35-mm petri dishes containing 2 mL culture medium. Following 24 h of incubation, the cells were divided into the following groups: control (no treatment); laser (irradiated with a light dose of 15 J/cm^2); G-Ce6 (treated with 8 μg/mL G-Ce6); and PDT (treated with 8 μg/mL G-Ce6, and then irradiated with a light dose of 1, 5, or 15 J/cm^2).
The cells were incubated with 8 μg/mL G-Ce6 for 24 h. After washing with fresh media, the cells were irradiated with 650-nm laser light (10 mW/cm^2; 1, 5, and 15 J/cm^2) emitted by a semiconductor laser, using an optical fiber with a microlens delivery attachment. Apoptosis was assessed 4 h after laser irradiation using the Muse Annexin V and Dead Cell Assay kit (EMD Millipore Co., Billerica, MA, USA), according to the manufacturer’s protocols. Annexin V was used to detect phosphatidylserine on the external membrane of apoptotic cells.
(§2) Single-cell suspensions were then loaded onto the Muse Cell Analyzer (EMD Millipore Co.).

[2] = tested on: murine colon cancer cells; set-up: method as in PMID 29408755; conditions: light dose of 16 J/cm^2; read-out: IC50 against murine colon cancer cells; cited from earlier work
[3] = tested on: SNP cells; test: Reactive oxygen species assay (Muse Oxidative Stress kit); type: cell-based, canine; conditions: 8 μg/mL, 4 h after PDT
Procedure: as §1
Reactive oxygen species (ROS) generation was assessed 4 h after laser irradiation using the Muse Oxidative Stress kit (EMD Millipore Co.), according to the manufacturer’s protocols; this kit determines the percentage of cells that are negative (healthy cells) and positive for ROS (cells containing ROS).
as §2

[4] = tested on: SNP tumors; test: Tumor response to PDT in SNP tumor-bearing mice; type: in vivo, NOD/ShiJic-scidJcl mice; conditions: 10 mg/kg i.v.; for Tumor regrowth delay vs control group: 677-nm, 100 J/cm^2, p < 0.05
Procedure: (§3) Six-week-old female NOD/ShiJic-scidJcl mice (CLEA Japan, Tokyo, Japan) were maintained in isolators under specific pathogen-free conditions. All SCID mice were housed and handled under clean conditions using a Jic rack (Jic Co., Kanagawa, Japan), sterilized water, cages, beddings, and food (CL-2; CLEA Japan, Tokyo, Japan). Food and water were given ad libitum. SNP cells were inoculated subcutaneously in the shaved lower dorsum of mice at a density of 1 × 10^6 cells in 0.1 mL phosphate buffered salts (Nacalai Tesque Inc., Kyoto, Japan) per mouse using a 26-gauge syringe. The treatments were initiated when the average tumor volume reached about 100 mm^3 in tumor model. The use of animals and the procedures employed in this study were approved by the Animal Research Committee of Tottori University (project number: 15-T-48).
We examined the following two experimental groups: (i) a 3-h-interval PDT group (G-Ce6 administered 3 h before laser irradiation) and (ii) a 5-min-interval PDT group (G-Ce6 administered 5 min before laser irradiation). Tumor-bearing mice were intravenously administered approximately 0.1 mL of G-Ce6 stock solution to achieve a dose of 10 mg/kg body weight; they were irradiated with 677-nm laser light emitted by a diode laser (Osada Electric Co., Ltd., Tokyo, Japan). Light was delivered to the mice through a quartz fiber fitted with a microlens and expanded onto the tumor at a 2–4 mm skin margin. The tumors were exposed at a fluence rate of 250 mW/cm^2, at a light dose of 100 J/cm^2.
The resulting treatment effect was assayed by changes in tumor volume. The tumor size was regularly measured after PDT using a caliper. Tumor volume was calculated using the following formula: tumor volume (V) = (a × b × c) × π/6, where a, b, and c are three orthogonal diameters of the tumor. The experiment was terminated on day 25. All mice were sacrificed via cervical dislocation, and the tumors were harvested.

[5] = tested on: SNP cells; test: Analysis of cell death (Hoechst 33342, Annexin V-FITC / EthD-III staining); type: cell-based, canine; conditions: for Annexin V-FITC / EthD-III staining 4 h after PDT: 8 μg/mL
Procedure: We seeded 5 × 10^4 SNP cells in 35-mm Petri dishes containing 2 mL of cultivation medium. After 24 h of incubation, the dishes were divided into the following […] groups: 1) control group (no treatment); 2) 0 J/cm^2 PDT group (treated with 8 μg/mL G-Ce6 and irradiated with light dose of 0 J/cm^2); 3) 1 J/cm^2 PDT group (treated with 8 μg/mL G-Ce6 and irradiated with light dose of 1 J/cm^2); 4) 5 J/cm^2 PDT group (treated with 8 μg/mL G-Ce6 and irradiated with light dose of 5 J/cm^2); and 5) 15 J/cm^2 PDT group (treated with 8 μg/mL G-Ce6 and irradiated with light dose of 15 J/cm^2).
The cells were incubated with 8 μg/mL G-Ce6 for 24 h. After washing with fresh media, the cells were irradiated with 650-nm laser light (10 mW/cm^2; 1, 5, and 15 J/cm^2) emitted by a semiconductor laser using an optical fiber with a microlens delivery attachment. After 4 h of PDT, the cells were stained using the Promokine Apoptotic/Necrotic/Healthy cell detection kit (PromoKine, Heidelberg, Germany), according to the manufacturer’s instructions. […] Nuclear morphology was examined using an Olympus BX51 (Olympus Co., Tokyo, Japan). […] Nuclear morphology was examined using an Olympus Fluoview FV1000 (Olympus Co., Tokyo, Japan). The cells were analyzed using fluorescence microscopy using FITC and Texas Red filter setting.

[6] = tested on: SNP cells; test: Photodynamic cytotoxicity in SNP cells (Cell Counting Kit-8); type: cell-based, canine; conditions: 650-nm laser, 1 J/cm^2, data not shown
[7] = tested on: SNP tumors; test: Intratumoral localization in SNP tumors; type: in vivo, NOD/ShiJic-scidJcl mice; conditions: 10 mg/kg i.v.
Procedure: as §3
To determine the intratumoral localization of G-Ce6, tumors were excised either 5 min or 3 h after G-Ce6 (10 mg/kg, i.v.) administration. Samples were immediately mounted in Tissue-Tek® O.C.T. compound (Sakura® Finetek., Tokyo, Japan) and snap-frozen in dry ice with acetone. Cryostat cross sections (10-μm slices) were taken from the center of each tumor. Each section was examined using the all-in-one fluorescence microscope with a filter (excitation, 405 nm; emission, 640 nm).

CCC1=C(C)c2cc3[nH]c(cc4nc(c(CC(=O)OC)c5[nH]c(cc1n2)c(C)c5C(=O)OC)[C@@H](CCC(=O)OC)[C@@H]4C)c(C)c3C(C)OCCCS[C@@H]1O[C@H](CO)[C@@H](O)[C@H](O)[C@H]1O (stereo partly drawn) [G-Ce6, Methyl (7S,8S)-18-ethyl-5-(2-methoxy-2-oxoethyl)-7-(3-methoxy-3-oxopropyl)-2,8,12,17-tetramethyl-13-(1-(3-(((2S,3R,4S,5S,6R)-3,4,5-trihydroxy-6-(hydroxymethyl)tetrahydro-2H-pyran-2-yl)thio)propoxy)ethyl)-7H,8H-porphyrin-3-carboxylate]
Apoptotic rates compared with control group [1]: significantly higher | IC50 [2]: 1.35 nM | Percentage of ROS (+) cells compared with control group ([3]; 5 J/cm^2, p < 0.01): significantly higher | Percentage of ROS (+) cells ([3]; 15 J/cm^2): remarkably decreased | Mean tumor weight on day 25 ([4]; 3-h-interval PDT): 210.3 ± 85.0 mg | Tumor regrowth delay vs control group ([4]; 3-h-interval PDT): significant tumor regrowth delay | Mean tumor weight on day 25 ([4]; 5-min-interval PDT): 34.0 ± 12.7 mg | Tumor regrowth delay vs control group ([4]; 5-min-interval PDT): significant tumor regrowth delay | Morphological changes 4 h after PDT ([5]; 0 J/cm^2 PDT group, Hoechst 33342): Signs of cell death were not visible | Annexin V-FITC / EthD-III staining 4 h after PDT ([5]; 0 and 1 J/cm^2 PDT groups): a few cells were positively stained with EthD-III | Annexin V-FITC / EthD-III staining 4 h after PDT ([5]; 5 and 15 J/cm^2 PDT groups): many cells were positively stained with Annexin V or EthD-III | Morphological changes 4 h after PDT ([5]; 1 J/cm^2 PDT group): membrane blebbing | Morphological changes 4 h after PDT ([5]; 5 J/cm^2 PDT group): shrinkage | Hoechst 33342 nuclear staining 4 h after PDT ([5]; 5 and 15 J/cm^2 PDT groups): nuclear condensation | Morphological changes 4 h after PDT ([5]; 15 J/cm^2 PDT group): cell membranes were not observed and a decrease in the number of SNP cells was evident | Cytotoxicity after 1 h incubation [6]: No cytotoxicity was observed | Intratumoral localization of fluorescence ([7]; 5 min after administration): within the tumor blood vessel | Intratumoral localization of fluorescence ([7]; 3 h post administration): in both tumor interstitial tissue and tumor cells

From paper PMC6562844, “A Basic Study of Photodynamic Therapy with Glucose-Conjugated Chlorin e6 Using Mammary Carcinoma Xenografts” (Cancers, 2019)
